Measured values: PMC4666032, “KPT-330, a potent and selective exportin-1 (XPO-1) inhibitor, shows antitumor effects modulating the expression of cyclin D1 and survivin in prostate cancer models” (BMC Cancer, 2015)

Tests used:
Assay type in all cases: in vivo
[1] = tested on: PC3 xenografts; test: PC3 xenograft in male nude mice; details: for apoptosis in tumors (TUNEL staining) / cell proliferation in tumors (Ki-67 staining): KPT-251 100 mg/kg or KPT-330 10 mg/kg, sectioned tumors, PC3 xenografts (Fig. 7); for tumor weight: PC3 xenografts, PO Mon/Wed/Fri, vs vehicle
From the text: (§1) Male CD1 nude mice (Charles River, Milan, Italy) were maintained under the guidelines established by the University of L’Aquila, Medical School and Science and Technology School Board Regulations. Experiments on animals have been approved by your local IRB in compliance with the Italian government regulation n.116 January 27, 1992 for the use of laboratory animals which is line with ARRIVE guidelines. All mice received subcutaneous flank injections of 1 x 10^6 PC3, DU145 or 22v1 cells. Tumor growth was measured bi-weekly with a Vernier caliper (length x width). Tumor weight was calculated according to the formula: TW (mg) = tumor volume (mm^3) = d2 x D/2, where d and D are the shortest and longest diameters, respectively. The effects of the treatments were examined as previously described. Animals were sacrificed by carbon dioxide inhalation and tumors were subsequently removed surgically. A piece of tumor was frozen in liquid nitrogen for protein analysis and another piece was fixed in paraformaldehyde overnight for immunohistochemical analyses.
Mice were treated by oral gavage with either vehicle control (Pluronic F-68/PVP-K29/32), KPT330 or KPT251. Before tumor injection, animals were randomized into seven treatment groups as follows: Group 1: mice (10 animals) receiving 100 μl vehicle PO; Group 2: mice (10 animals) receiving 100 mg/kg KPT-251 every two days (Monday and Friday)/week PO; Group 3: mice (10 animals) receiving 30 mg/kg KPT-251 every two day/week PO; Group 4: mice (10 animals) receiving 10 mg/kg/day PO; Group 5: mice (10 animals) receiving 30 mg/kg KPT-330 every two days/week PO; Group 6: mice (10 animals) receiving 10 mg/kg KPT-330 every two days/week PO; Group 7: mice (10 animals) receiving 3 mg/kg/day KPT-330 PO. Treatments were started when tumor volumes reached approximately 80 mm^3 (Day 0) and were stopped after 28 days. The following parameters were used to quantify the antitumor effects upon different treatments: (1) tumor volume measured during and at the end of experiments, (2) tumor weight measured at the end of experiment, (3) complete response (CR) defined as the disappearance of the target lesion with respect to baseline, (4) partial response (PR) defined as a reduction of greater than 50 % of tumor volume with respect to baseline, (5) stable disease (SD) defined as a reduction of less than 50 % or an increase of less than 100 % of tumor volume with respect to baseline, (6) tumor progression (TP) defined as an increase of greater than […] of tumor volume with respect to baseline, (7) time to progression (TTP). In vivo, combinational studies were evaluated by CalcuSyn (Biosoft). For the calculation of CI, the values of cell kill for a fixed tumor volume were considered (determined by the log cell kill (LCK)). LCK was determined as LCKZ (TKC)/(3.3KTd), where Td represents the mean control group doubling time required to reach a fixed tumor volume, expressed in days, whereas T and C are the same values as described above.
To determine the effects of XPO-1 inhibition on prostate cancer growth in vivo, we used […] aggressive CRPC, PC3, DU145 and 22rv1, cell lines engrafted in male nude mice. Once tumors were established (80–100 mm3 in size), mice were divided into seven different groups (10 mice/group) and treated with varying doses of KPT-251 (10, 30, 100 mg/kg PO QoDx3) and KPT-330 (5, 10, 20 mg/kg PO QoDx3). Tumors were measured for 35 days. The effects of KPT-251 on tumor growth is shown in Fig. 5 and KPT-330 in Fig. 6. The mean tumor weight was calculated for each treatment group. […]

[2] = tested on: DU145 xenografts; test: DU145 xenograft in male nude mice; details: PO Mon/Wed/Fri, vs vehicle
From the text: as §1, with “Animals were sacrificed by carbon dioxide inhalation and tumors were subsequently removed surgically. A piece of tumor was frozen in liquid nitrogen for protein analysis and another piece was fixed in paraformaldehyde overnight for immunohistochemical analyses.” left out
(§2) Mice were treated by oral gavage with either vehicle control (Pluronic F-68/PVP-K29/32), KPT330 or KPT251. […] In vivo, combinational studies were evaluated by CalcuSyn (Biosoft). For the calculation of CI, the values of cell kill for a fixed tumor volume were considered (determined by the log cell kill (LCK)). LCK was determined as LCKZ (TKC)/(3.3KTd), where Td represents the mean control group doubling time required to reach a fixed tumor volume, expressed in days, whereas T and C are the same values as described above. […]

[3] = tested on: 22rv1 xenografts; test: 22rv1 xenograft in male nude mice; details: PO Mon/Wed/Fri, vs vehicle
From the text: as §1, with “Animals were sacrificed by carbon dioxide inhalation and tumors were subsequently removed surgically. A piece of tumor was frozen in liquid nitrogen for protein analysis and another piece was fixed in paraformaldehyde overnight for immunohistochemical analyses.” left out
as §2

Row | SMILES | apoptosis in tumors (TUNEL staining) [1] | cell proliferation in tumors (Ki-67 staining) [1] | tumor weight [1] | tumor weight [2] | tumor weight [3]
1 | FC(F)(F)c1cc(-c2ncn(/C=C\c3nnco3)n2)cc(C(F)(F)F)c1 [KPT-251] | increased apoptosis | decreased cell proliferation | reduce tumor weight in a dose-dependent manner | reduce tumor weight in a dose-dependent manner | reduce tumor weight in a dose-dependent manner
2 | O=C(/C=C\n1cnc(-c2cc(C(F)(F)F)cc(C(F)(F)F)c2)n1)NNc1cnccn1 [KPT-330] | increased apoptosis | decreased cell proliferation | reduce tumor weight in a dose-dependent manner | reduce tumor weight in a dose-dependent manner | reduce tumor weight in a dose-dependent manner
